Laboratory results published in ChEMBL document CHEMBL2363022, “Malaria Box Schistosomiasis Screening Data” (2013).

Assays:
Format in all cases: functional
Schistosoma mansoni [1] = experiment: MMV: Toxicity @ 5 uM to 4-5 Schistosoma mansoni adult males after 72 h on a scale of 0 (none) - 4 (most). Includes short descriptors of effects as judged visually (PMID:19597541). Only those Malaria box 'drug-like' cpds yielding the most severe phenotypes vs. somules were tested. Caffrey group UCSF.
Schistosoma mansoni [2] = experiment: (§1) MMV: Motility assay. Percent change (relative to DMSO controls) @ 5 uM of movement of 4-5 Schistosoma mansoni adult males after 72 h as measured by the Consensus Voting Luminance Difference algorithm available on WormAssay (PMID:22303493). Occasional incongruence ocurrs between the motility scores and the visually adjudicated 'toxicity scores'. In these cases the 'toxicity score' should be prioritized. Only those Malaria box 'Drug-like' cpds yielding the most severe phenotypes vs. somules were tested. Caffrey group UCSF.
Schistosoma mansoni [3] = experiment: MMV: Toxicity @ 5 uM to 4-5 Schistosoma mansoni adult males after 24 h on a scale of 0 (none) - 4 (most). Includes short descriptors of effects as judged visually (PMID:19597541). Only those Malaria box 'drug-like' cpds yielding the most severe phenotypes vs. somules were tested. Caffrey group UCSF.
Schistosoma mansoni [4] = system: Schistosoma mansoni; parameters: scale not given here
Schistosoma mansoni [5] = system: Schistosoma mansoni; parameters: scale not given here; remark: listed apart in the source
Schistosoma mansoni [6] = experiment: as §1, with “48” for “72”
Schistosoma mansoni [7] = system: Schistosoma mansoni; parameters: scale not given here; remark: listed apart in the source
Schistosoma mansoni [8] = experiment: as §1, with “24” for “72”
Schistosoma mansoni [9] = experiment: MMV: Toxicity @ 5 uM to 4-5 Schistosoma mansoni adult males after 48 h on a scale of 0 (none) - 4 (most). Includes short descriptors of effects as judged visually (PMID:19597541). Only those Malaria box 'drug-like' cpds yielding the most severe phenotypes vs. somules were tested. Caffrey group UCSF.

SMILES	Toxicity (Schistosoma mansoni [1])	Motility (Schistosoma mansoni [2])	Toxicity (Schistosoma mansoni [3])	Toxicity (Schistosoma mansoni [4])	Toxicity (Schistosoma mansoni [5])	Motility (Schistosoma mansoni [6])	Toxicity (Schistosoma mansoni [7])	Motility (Schistosoma mansoni [8])	Toxicity (Schistosoma mansoni [9])
COc1ccc(CCN2CCC(CN(C)Cc3cnn(-c4ccccc4)c3)CC2)cc1	0	70.2	0	2	1	114.8	1	33.8	0
Cl.Clc1cc(Br)ccc1-c1ccc(CNCC2CCNCC2)o1	2	On sides, dark	2	4	4	52.5	4	27.8	3
Cc1cccc(-n2ncc3c(O)nc(-n4nc(C)cc4NC(=O)c4cc5ccccc5o4)nc32)c1	4	Slow, on sides, dark, tegument damage	0	1	4	1	1	6	3
Cc1cc(C)c2nc(N3CCC(C(=O)NCCCN4CCC(N5CCCCC5)CC4)CC3)sc2c1	0	117	0	4	4	125.2	4	97.4	0
OC(CNC1CCCC1)Cn1c2ccccc2c2ccccc21 (stereo not given)	0	No effect	0	1	4	83	4	No effect	0
COc1ccc(CNC2CCN(c3ccc(NC(=O)c4cccc(Cl)c4)cc3)CC2)cc1OC	0	49	0	2	4	45.4	4	104.8	0
CNCCCNc1ccnc2cc(Cl)ccc12	0	No effect	0	2	2	116.2	2	113.2	0
CC(C)(C)CC(C)(C)NCC(O)COc1ccc(Cl)cc1Cl (stereo not given)	–	–	0	0	4	53	4	–	1
Cl.N=c1n(CCN2CCCCC2)c2ccccc2n1CC(O)c1cccc(Br)c1 (stereo not given)	0	114.5	0	2	4	74.8	2	92.2	0
COc1cc2c(cc1OC)C1=NNC(=O)C1=NC(C)(C)C2	0	No effect	0	0	4	120	4	140	0
CN(C)CCCNCc1ccc(-c2ccc(F)c(Cl)c2)o1.Cl	2	65.7	2	2	3	62.2	3	26.2	2
CCN(CC)CCCNc1nc(-c2ccc(Cl)cc2)nc2ccccc12	0	56	0	2	4	99.5	4	86.7	0
COc1cc(CNCCc2ccc(Cl)cc2)cc(OC)c1O	–	–	–	0	0	–	0	–	–
O=C(Cc1ccccc1)NC(c1ccc(Cl)cc1)c1c(O)ccc2ccccc12 (stereo not given)	–	–	–	2	2	–	1	–	–
COc1ccc(-c2nonc2NC(=O)c2cccc(Cl)c2)cc1OC	–	–	–	0	0	–	0	–	–
c1ccc2cc3c(Nc4ccc(N5CCOCC5)cc4)ccnc3cc2c1	–	–	–	2	4	–	4	–	–
COc1ccc2c(c1)OC(O)(C(F)(F)C(F)(F)F)CC2=O (stereo not given)	–	–	–	0	0	–	0	–	–
CN1CCN(c2ccc(Nc3c4ccccc4nc4ccccc34)cc2)CC1	–	–	–	2	4	–	4	–	–
COc1ccc2nc(N)nc(C)c2c1	–	–	–	0	4	–	0	–	–

SMILES	Toxicity (Schistosoma mansoni [1])	Motility (Schistosoma mansoni [2])	Toxicity (Schistosoma mansoni [3])	Toxicity (Schistosoma mansoni [4])	Toxicity (Schistosoma mansoni [5])	Motility (Schistosoma mansoni [6])	Toxicity (Schistosoma mansoni [7])	Motility (Schistosoma mansoni [8])	Toxicity (Schistosoma mansoni [9])
CCOC(=O)c1cn(CC)c2cc(N3CCCCC3)c(F)cc2c1=O	–	–	–	0	0	–	0	–	–
COc1ccc(NC(=O)C2c3ccccc3C(=O)N(CC(C)C)C2c2cccs2)cc1 (stereo not given)	–	–	–	1	0	–	0	–	–
CCOC(=O)c1cnc2c(C)cccc2c1Nc1ccc(C(C)=O)cc1	–	–	–	0	0	–	0	–	–
COc1ccccc1CNC(=O)CCn1c(=O)[nH]c2ccccc2c1=O	–	–	–	0	0	–	0	–	–
N=c1n(CCN2CCCCC2)c2ccccc2n1CC(=O)c1ccc(Cl)c(Cl)c1	–	–	–	3	4	–	4	–	–
O=C(NC1CCN(Cc2ccccc2)CC1)c1cc2nc(-c3ccc(Cl)s3)cc(C(F)(F)F)n2n1	–	–	–	0	4	–	4	–	–
O=C(Nc1ccccc1O)c1ccc(Oc2cccc(C(=O)Nc3ccccc3O)c2)cc1	–	–	–	0	2	–	2	–	–
Cc1cccc(Nc2nc(N)c3ccccc3n2)c1.Cl	–	–	–	2	0	–	0	–	–
COCCn1c(C)nc2ccccc2c1=O	–	–	–	0	0	–	0	–	–
FC(F)(F)c1cccc(Nc2nc(-c3ccccc3)nc3ncccc23)c1	–	–	–	0	0	–	0	–	–
COc1cc(C(=O)Nc2ccc(-c3nc4ccccc4[nH]3)cc2)cc(OC)c1OC	–	–	–	0	0	–	0	–	–
CCCCCC(=O)N1c2ccccc2N=C2CC(c3ccc(OC)c(OC)c3)CC(O)=C2C1c1ccc(C(F)(F)F)cc1 (stereo not given)	–	–	–	0	0	–	0	–	–
Cc1cc(Nc2ccc(Cl)cc2)n2nc(C(F)(F)F)nc2n1	–	–	–	0	0	–	0	–	–
c1ccc(-c2ccc(-c3nc4ccccc4[nH]3)cc2)cc1	–	–	–	0	0	–	0	–	–
FC(F)(F)c1ccc(Nc2nnnc3ccccc23)cc1	–	–	–	1	0	–	0	–	–
CC(=O)c1ccc(NC(=O)CSc2nc(-c3ccccc3Cl)ns2)cc1	–	–	–	0	0	–	0	–	–
Cc1ccc(C)c(Cn2c(N3CCC(C(=O)NCc4cccs4)CC3)nc3ccccc32)c1	–	–	–	0	0	–	0	–	–
COc1ccc(-c2nc(NC(=O)CS(=O)(=O)c3ccc(F)cc3)sc2C)cc1	–	–	–	0	0	–	0	–	–
